For assay [1], the target named is T1, acyl-CoA: cholesterol acyltransferase (ACAT) (Rattus norvegicus, UniProt Q7TQM4).
T1 construct: tissue preparation containing rat liver microsomes (designated LAI); from tissue; host or cells: rat liver microsomes
T1 sequence (Q7TQM4 1-524): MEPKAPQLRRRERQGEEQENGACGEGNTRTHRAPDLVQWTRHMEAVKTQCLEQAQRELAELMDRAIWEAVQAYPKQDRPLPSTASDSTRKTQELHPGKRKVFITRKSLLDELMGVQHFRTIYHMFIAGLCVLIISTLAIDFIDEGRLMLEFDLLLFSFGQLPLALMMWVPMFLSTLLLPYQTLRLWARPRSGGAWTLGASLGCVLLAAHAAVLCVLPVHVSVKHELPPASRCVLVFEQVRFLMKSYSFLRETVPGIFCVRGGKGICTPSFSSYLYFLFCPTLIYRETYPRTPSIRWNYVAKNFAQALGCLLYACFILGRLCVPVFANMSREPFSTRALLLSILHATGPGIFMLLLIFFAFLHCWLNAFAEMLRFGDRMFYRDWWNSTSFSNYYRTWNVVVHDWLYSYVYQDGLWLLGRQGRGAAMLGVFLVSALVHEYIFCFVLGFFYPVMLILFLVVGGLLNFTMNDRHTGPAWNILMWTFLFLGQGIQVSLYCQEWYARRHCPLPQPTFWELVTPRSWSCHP
In words: LAI: in vitro inhibition of ACAT (acylation of cholesterol by radiolabeled oleic acid) in rat liver microsomes. It counts as biochemical. How it is done:
The ability of representative compounds of the present invention to inhibit ACAT was measured using an in vitro test more fully described in F. J. Field and R. G. Salone, Biochemica et Biophysica Acta, 712:557-570 (1982). The test assesses the ability of a test compound to inhibit the acylation of cholesterol by oleic acid by measuring the amount of radiolabeled cholesterol oleate formed from radiolabeled oleic acid in a tissue preparation containing rat liver microsomes (designated LAI).

For another assay, the system named is male Sprague-Dawley rats. Put plainly: APCC: in vivo screen, total cholesterol in rats fed a high fat, high cholesterol diet. Details: species or system rat (male Sprague-Dawley). To be noted: Rattus norvegicus, po, 16 h, 30 mg/kg by gavage, high cholesterol diet (5.5% peanut oil, 1.5% cholesterol, 0.5% cholic acid), dosed 4 PM, sacrificed 8 AM, read-out: APCC (% change TC): percent change in total cholesterol from control animals given vehicle and diet only. The text has this: In an in vivo screen designated APCC, male Sprague-Dawley rats (200-225 g body weight) were randomly divided into treatment groups and dosed at 4 PM with either vehicle (CMC/Tween) or suspensions of invention compounds in vehicle. The normal chow diet was then replaced with a high fat, high cholesterol diet (5.5% peanut oil, 1.5% cholesterol, and 0.5% cholic acid). The rats consumed this diet ad libitum during the night and were sacrificed at 8 AM to obtain blood samples for cholesterol analysis using standard procedures. Statistical differences between mean cholesterol values for the same vehicle were determined using analysis of variance followed by Fisher's least significant test. The results of this trial for representative compounds of the present invention also appear in Table I as the percent change in total cholesterol (% TC) from control animals given vehicle and diet only. All compounds in the APCC test reported in Table 1 were administered by gavage at 30 mg/kg.

A value given as a limit tells only on which side of the number the result lay.

Consider `CCCCCCCCCCOC(=O)CS(=O)(=O)Nc1c(C(C)C)cccc1C(C)C` [Example 24, (2,6-Diisopropylphenylsulfamoyl)-acetic Acid Decylester], for which the IC50 in assay [1] is > 1000 nM. Besides, the change in vivo at 30 mg/kg with male Sprague-Dawley rats is -16%.

As to `CC(C)c1cccc(C(C)C)c1NS(=O)(=O)CC(=O)Oc1c(C(C)C)cccc1C(C)C` [Example 22, 2,6,-Diissoproplphenyl(2,6-diisopropylphenylsulfamoyl)acetate], the IC50 in assay [1] was 17600 nM. Also, the change in vivo at 30 mg/kg in the assay with male Sprague-Dawley rats was -7%.

In the case of `CC(C)c1cccc(C(C)C)c1NS(=O)(=O)CC(=O)O` [Example 30, (2,6-Diisopropylphenylsulfamoyl)-acetic Acid], the IC50 in assay [1] was > 1000 nM. Moreover, the change in vivo at 30 mg/kg in the assay on male Sprague-Dawley rats was determined as 3%.

Turning to `CCCCCCCCCCCCCCSC(=O)CS(=O)(=O)Nc1c(C(C)C)cccc1C(C)C` [Example 15, (2,6-Diisopropylphenylsulfamoyl)-thio-acetic Acid S-tetradecyl Ester], in the assay on male Sprague-Dawley rats, the change in vivo at 30 mg/kg was -23%.

As for `CC(C)c1cccc(C(C)C)c1NS(=O)(=O)CC(=O)Sc1c(C(C)C)cccc1C(C)C` [Example 12, (2,6-Diisopropylphenylsulfamoyl)-thioacetic Acid 2,6-Diisopropylphenyl Ester], the 50% inhibitory concentration (IC50) in assay [1] was > 5000 nM. In addition, the change in vivo at 30 mg/kg with male Sprague-Dawley rats is -16%.

With `COc1cc(OC)c(OC(=O)CS(=O)(=O)Nc2c(C(C)C)cccc2C(C)C)c(OC)c1` [Example 25, (2,6-Diisopropylphenylsulfamoyl)-acetic Acid 2,4,6-trimethoxyphenyl Ester], the half-inhibitory concentration (IC50) in assay [1] was > 1000 nM. Further, in the assay with male Sprague-Dawley rats, the change in vivo at 30 mg/kg was -6%.

The compound `CC(CCc1ccccc1)COC(=O)CS(=O)(=O)Nc1c(C(C)C)cccc1C(C)C` (centres unmarked) [Example 40, (2,6-diisopropylphenylsulfamoyl)-acetic acid, (2-methyl-4-phenylbutyl) ester] registered a half-inhibitory concentration (IC50) in assay [1] of 4200 nM. Besides, in the assay on male Sprague-Dawley rats, the change in vivo at 30 mg/kg is -32%.

For the compound `CCCCCCCCN(CCCCCCCC)C(=O)CS(=O)(=O)Nc1c(C(C)C)cccc1C(C)C` [Example 3, 2-(2,6-Diisopropylphenylsulfamoyl)-N,N-dioctylacetamide], in the assay on male Sprague-Dawley rats, the change in vivo at 30 mg/kg is -19%.

Regarding `CCCCCCCCCCCCOC(=O)CS(=O)(=O)Nc1c(C(C)C)cccc1C(C)C` [Example 29, (2,6-Diisopropylphenylsulfamoyl)-acetic Acid Dodecylester], the change in vivo at 30 mg/kg with male Sprague-Dawley rats was -34%.

As to `CCCCCCCCOC(=O)CS(=O)(=O)Nc1c(C(C)C)cccc1C(C)C` [Example 23, (2,6-Diisopropylphenylsulfamoyl)-acetic Acid Octyl Ester], the concentration for half-maximal inhibition (IC50) in assay [1] was > 1000 nM. Further, the change in vivo at 30 mg/kg with male Sprague-Dawley rats is -4%.

For `CCCCCCCCCCCCCCCCCCSC(=O)CS(=O)(=O)Nc1c(C(C)C)cccc1C(C)C` [Example 18, (2,6-Diisopropylphenylsulfamoyl)-thioacetic Acid S-octadecyl Ester], the IC50 in assay [1] was > 5000 nM. Moreover, the change in vivo at 30 mg/kg in the assay on male Sprague-Dawley rats is -35%.

Regarding `CC(C)c1cccc(C(C)C)c1NS(=O)(=O)CC(=O)N(Cc1ccccc1)C(C)C` [Example 7, N-Benzyl-N-isopropyl-2-(2,6-diisopropylphenylsulfamoyl)acetamide], the change in vivo at 30 mg/kg in the assay on male Sprague-Dawley rats is -31%.

For `CC(C)c1cccc(C(C)C)c1NS(=O)(=O)CC(=O)NCC(c1ccccc1)C1CCCC1` (centres unmarked) [Example 9, 2-(2,6-Diisopropylphenylsulfamoyl)-N-(2-cyclopentyl-2-phenylethyl)-acetamide], in assay [1], the IC50 was > 1000 nM.

Regarding `CCCCCCCCCCCCNC(=O)CS(=O)(=O)Nc1c(C(C)C)cccc1C(C)C` [Example 5, 2-(2,6-Diisopropylphenylsulfamoyl)-N-dodecyl-acetamide], the change in vivo at 30 mg/kg with male Sprague-Dawley rats was -29%.

For the compound `CCCCCCOC(=O)CS(=O)(=O)Nc1c(C(C)C)cccc1C(C)C` [Example 26, (2,6-Diisopropylphenylsulfamoyl)-acetic Acid Hexyl Ester], the half-inhibitory concentration (IC50) in assay [1] was > 1000 nM. Further, the change in vivo at 30 mg/kg in the assay on male Sprague-Dawley rats is -5%.

Take `CCCCCCCCCCCCC(C)OC(=O)CS(=O)(=O)Nc1c(C(C)C)cccc1C(C)C` (centres unmarked) [Example 28, (2,6-Diisopropylphenylsulfamoyl)-acetic Acid 1-methyltridecyl Ester]: in the assay with male Sprague-Dawley rats, the change in vivo at 30 mg/kg was -39%.

Turning to `CCCCCCCCCCCCSC(=O)CS(=O)(=O)Nc1c(C(C)C)cccc1C(C)C` [Example 10, (2,6-Diisopropylphenylsulfamoyl)-thio-acetic Acid S-dodecyl Ester], the change in vivo at 30 mg/kg in the assay on male Sprague-Dawley rats was -71%.

Regarding `COc1cc(OC)c(NC(=O)CS(=O)(=O)Nc2c(OC)cc(OC)cc2OC)c(OC)c1` [Example 27, N-(2,4,6-trimethyoxyphenyl)-2-(2,4,6-trimethoxy-phenylsulfamoyl)-acetamide], the IC50 in assay [1] stood at 7600 nM. Further, the change in vivo at 30 mg/kg in the assay on male Sprague-Dawley rats amounted to 5%.

Take `CC(C)c1cc(C(C)C)c(OC(=O)CS(=O)(=O)Nc2c(C(C)C)cccc2C(C)C)c(C(C)C)c1` [Example 1, 2,4,6-Triisopropylphenyl(2,6-diisopropylphenylsulfamoyl)acetate]: the change in vivo at 30 mg/kg in the assay with male Sprague-Dawley rats is -19%.

As for `Cc1cccc(C)c1SC(=O)CS(=O)(=O)Nc1c(C(C)C)cccc1C(C)C` [Example 19, (2,6-Diisopropylphenylsulfamoyl)-thioacetic Acid S-2,6-dimethylphenyl Ester], the half-maximal inhibitory concentration (IC50) in assay [1] was > 5000 nM. For the same compound, in the assay with male Sprague-Dawley rats, the change in vivo at 30 mg/kg was found to be 3%.

With `CCCCCCCCCCCCSC(=O)CS(=O)(=O)Nc1ccc(F)cc1F` [Example 16, (2,4-Diifluorophenylsulfamoyl)-thioacetic Acid S-dodecyl Ester], half-maximal inhibition in assay [1] (IC50) required 230 nM. For the same compound, in the assay on male Sprague-Dawley rats, the change in vivo at 30 mg/kg is -37%.

Take `CCCCCCNC(=O)CS(=O)(=O)Nc1c(C(C)C)cccc1C(C)C` [Example 6, 2-(2,6-Diisopropylphenylsulfamoyl)-N-hexyl-acetamide]: in assay [1], the IC50 was > 5000 nM. In the assay with male Sprague-Dawley rats, the change in vivo at 30 mg/kg was -16%.

For `CC(C)c1cccc(C(C)C)c1NC(=O)CS(=O)(=O)Nc1c(C(C)C)cccc1C(C)C` [Example 4, N-(2,6-Diisopropylphenyl)-2-(2,6-diisopropylphenylsulfamoyl)-acetamide], in the assay with male Sprague-Dawley rats, the change in vivo at 30 mg/kg is -51%.

`CCCCCCCCCCCCn1nnc(NC(=O)CS(=O)(=O)Nc2c(C(C)C)cccc2C(C)C)n1` [Example 2, 2-(2,6-Diisopropyl-phenylsulfamoyl)-N-(dodecyl-2-H-tetrazol-5-yl)-acetamide]: the 50% inhibitory concentration (IC50) in assay [1] turned out to be 1900 nM. For the same compound, the change in vivo at 30 mg/kg with male Sprague-Dawley rats is -50%.

In the case of `CCOC(=O)CS(=O)(=O)Nc1c(C(C)C)cccc1C(C)C` [Example 21, (2,6-Diisopropylphenylsulfamoyl)-acetic Acid Ethyl Ester], in assay [1], the IC50 was > 1000 nM. The change in vivo at 30 mg/kg in the assay with male Sprague-Dawley rats is 2%.

In the case of `CCCCCCCCCCCCSC(=O)CS(=O)(=O)Nc1c(OC)cc(OC)cc1OC` [Example 17, (2,4,6-Trimethoxyphenylsulfamoyl)-thioacetic Acid S-dodecyl Ester], in assay [1], inhibition was half-maximal at 570 nM (IC50). Moreover, the change in vivo at 30 mg/kg in the assay on male Sprague-Dawley rats is -3%.

On to `CCCCCCCCCCCCCCOC(=O)CS(=O)(=O)Nc1c(C(C)C)cccc1C(C)C` [Example 20, (2,6-Diisopropylphenylsulfamoyl)-acetic Acid Tetradecyl Ester], for which the change in vivo at 30 mg/kg with male Sprague-Dawley rats was -45%.

`CC(C)c1cc(C(C)C)c(NS(=O)(=O)CC(=O)Oc2c(C(C)C)cccc2C(C)C)c(C(C)C)c1` [Example 31, (2,4,6-Triisopropylphenylsulfamoyl)-acetic Acid, 2,6-Diisopropyl Ester]: the IC50 in assay [1] is > 1000 nM. Moreover, the change in vivo at 30 mg/kg in the assay with male Sprague-Dawley rats was -29%.

For the compound `CC(C)c1cccc(C(C)C)c1NS(=O)(=O)CC(=O)NC(c1ccccc1)c1ccccc1` [Example 8, 2-(2,6-Diisopropylphenylsulfamoyl)-N-diphenylmethylacetamide], the IC50 in assay [1] is > 1000 nM.

For `CCCCCCCCSC(=O)CS(=O)(=O)Nc1c(C(C)C)cccc1C(C)C` [Example 11, (2,6-Diisopropylphenylsulfamoyl)-thio-acetic Acid S-octyl Ester], the change in vivo at 30 mg/kg with male Sprague-Dawley rats is -32%.

Values taken from patent US5491170A, “β-carboxy sulfonamide ACAT inhibitors” (priority 1994, dated 1996).
